Laboratory results: patent publication US12083129B2, “Treatment of breast cancer using combination therapies comprising an ATP competitive AKT inhibitor, a CDK4/6 inhibitor, and fulvestrant” (Genentech, Inc., priority 2019, dated 2024)

System: breast cancer cell lines
Experiment: single agent sensitivity of breast cancer cell lines
Assay type: cell-based
Conditions: FIG. 1A and 1B
Procedure: Cell lines were treated with agents described herein (e.g. ipatasertib, palbociclib, and fulvestrant). […] (See FIG. 1A and FIG. 1B). There was synergy between ipatasertib and palbociclib as show by the BLISS scores of FIGS. 2A, 2B, 2C, and 2D. […] The percent weight loss resulting from treatment is shown by FIGS. 8A and 8B.

CC(C)NC[C@@H](C(=O)N1CCN(c2ncnc3c2[C@H](C)C[C@H]3O)CC1)c1ccc(Cl)cc1 [ipatasertib, (S)-2-(4-chlorophenyl)-1-(4-((5R,7R)-7-hydroxy-5-methyl-6,7-dihydro-5H-cyclopenta[d]pyrimidin-4-yl)piperazin-1-yl)-3-(isopropylamino)propan-1-one]
single agent sensitivity of breast cancer cell lines: differential single agent sensitivity

CC(=O)c1c(C)c2cnc(Nc3ccc(N4CCNCC4)cn3)nc2n(C2CCCC2)c1=O [palbociclib, 6-acetyl-8-cyclopentyl-5-methyl-2-{[5-(piperazin-1-yl)pyridin-2-yl]amino}pyrido[2,3-d]pyrimidin-7(8H)-one]
single agent sensitivity of breast cancer cell lines: differential single agent sensitivity
